What was measured:
[1] = molecular target: Prostaglandin F2-alpha receptor (Homo sapiens, UniProt P43088); assay: Activity at FP receptor (unknown origin)
Homo sapiens [2] = species: Homo sapiens; assay: Selectivity index, ratio of pIC50 for FP receptor (unknown origin) to pEC50 for partial agonist activity at human EP4 receptor expressed in HEK293-AEQ17 cells; format: cell-based
Cynomolgus monkey = assay: Blood clearance in orally dosed cynomolgus monkey; format: ADME, organism-based, Macaca fascicularis; conditions: in vivo, po
Cytochrome P450 2C9 = Cytochrome P450 2C9 (Homo sapiens, UniProt P11712); assay: Inhibition of human recombinant CYP2C9; format: ADME; conditions: human, recombinant enzyme
[3] = Intrinsic clearance in dog liver microsomes; format: ADME, Canis lupus familiaris, microsome
Homo sapiens [4] = species: Homo sapiens; assay: Selectivity index, ratio of pIC50 for EP1 receptor (unknown origin) to pEC50 for partial agonist activity at human EP4 receptor expressed in HEK293-AEQ17 cells; format: cell-based
[5] = molecular target: T1, Prostaglandin E2 receptor EP3 subtype (Homo sapiens, UniProt P43115); assay: Activity at EP3 receptor (unknown origin)
T1 sequence (P43115 whole entry): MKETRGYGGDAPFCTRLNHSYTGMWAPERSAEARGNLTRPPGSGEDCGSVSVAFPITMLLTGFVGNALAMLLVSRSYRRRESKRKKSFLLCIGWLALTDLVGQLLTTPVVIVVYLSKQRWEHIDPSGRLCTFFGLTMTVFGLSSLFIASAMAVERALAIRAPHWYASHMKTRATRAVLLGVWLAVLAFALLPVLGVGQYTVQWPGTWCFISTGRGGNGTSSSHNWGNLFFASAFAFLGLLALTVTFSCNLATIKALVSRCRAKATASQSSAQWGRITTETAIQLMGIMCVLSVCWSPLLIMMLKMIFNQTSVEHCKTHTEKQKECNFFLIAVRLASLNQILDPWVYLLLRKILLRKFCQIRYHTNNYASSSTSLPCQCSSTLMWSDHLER

Rattus norvegicus [6] = assay: Analgesic activity in orally dosed rat model of Freund's complete adjuvant-induced acute inflammatory pain assessed as reversal of FCA-induced hypersensitivity; format: functional; conditions: po
[7] = Intrinsic clearance in rat liver microsomes; format: ADME, microsome
[8] = Protein binding in human plasma; format: ADME, cell-free; conditions: read-out: PPB
Homo sapiens [9] = species: Homo sapiens; assay: Selectivity index, ratio of pIC50 for DP1 receptor (unknown origin) to pEC50 for partial agonist activity at human EP4 receptor expressed in HEK293-AEQ17 cells; format: cell-based
Homo sapiens [10] = species: Homo sapiens; assay: Selectivity index, ratio of antagonist activity at IP receptor (unknown origin) to pEC50 for partial agonist activity at human EP4 receptor expressed in HEK293-AEQ17 cells; format: cell-based
[11] = molecular target: Prostaglandin E2 receptor EP4 subtype (Homo sapiens, UniProt P35408); assay: Partial agonist activity at EP4 receptor in human whole blood assessed as inhibition of LPS-induced TNFalpha production; format: functional
Rattus norvegicus [12] = assay: Analgesic activity in rat model of chronic joint pain dosed twice daily for 5 days; format: functional; conditions: 120 h
Rattus norvegicus [13] = assay: Analgesic activity in rat model of chronic constriction injury-induced neuropathic pain assessed as reversal of mechanical allodynia at 3 mg/kg dosed twice daily for 8 days relative to untreated control; format: functional; conditions: 192 h
Rattus norvegicus [14] = assay: Potency index, ratio of ED50 for CCI17474 to ED50 for test compound for analgesic activity in orally dosed rat model of Freund's complete adjuvant-induced acute inflammatory pain assessed as reversal of FCA-induced hypersensitivity; format: functional
Cytochrome P450 3A4 = Cytochrome P450 3A4 (Homo sapiens, UniProt P08684); assay: Inhibition of human recombinant CYP3A4 using DEF substrate; format: ADME; conditions: human, recombinant enzyme
[15] = Half life in orally dosed dog; format: ADME, organism-based, Canis lupus familiaris; conditions: in vivo, po
[16] = molecular target: Prostacyclin receptor (Homo sapiens) (UniProt P43119); assay: Antagonist activity at IP receptor (unknown origin) assessed as inhibition of receptor activation at 1 uM; format: functional
[17] = Oral bioavailability in dog; format: ADME, organism-based, Canis lupus familiaris; conditions: in vivo
Rattus norvegicus [18] = assay: Analgesic activity in rat model of Freund's complete adjuvant-induced acute inflammatory pain assessed as reversal of FCA-induced hypersensitivity at 3 mg/kg, po relative to untreated control; format: functional
[19] = Oral bioavailability in cynomolgus monkey; format: ADME, organism-based, Macaca fascicularis; conditions: in vivo
Rattus norvegicus [20] = assay: Analgesic activity in rat model of chronic constriction injury-induced neuropathic pain assessed as reversal of mechanical allodynia at 3 mg/kg dosed twice daily for 8 days; format: functional, organism-based; conditions: TDE = time-dependent effect
[21] = Blood clearance in rat at 1 mg/kg, po; format: ADME, organism-based
Cytochrome P450 2D6 = Cytochrome P450 2D6 (Homo sapiens, UniProt P10635); assay: Inhibition of human recombinant CYP2D6; format: ADME; conditions: human, recombinant enzyme
Cytochrome P450 1A2 = molecular target: T2, Cytochrome P450 1A2 (Homo sapiens, UniProt P05177); assay: Inhibition of human recombinant CYP1A2; format: ADME; conditions: human, recombinant enzyme
T2 sequence (P05177 whole entry): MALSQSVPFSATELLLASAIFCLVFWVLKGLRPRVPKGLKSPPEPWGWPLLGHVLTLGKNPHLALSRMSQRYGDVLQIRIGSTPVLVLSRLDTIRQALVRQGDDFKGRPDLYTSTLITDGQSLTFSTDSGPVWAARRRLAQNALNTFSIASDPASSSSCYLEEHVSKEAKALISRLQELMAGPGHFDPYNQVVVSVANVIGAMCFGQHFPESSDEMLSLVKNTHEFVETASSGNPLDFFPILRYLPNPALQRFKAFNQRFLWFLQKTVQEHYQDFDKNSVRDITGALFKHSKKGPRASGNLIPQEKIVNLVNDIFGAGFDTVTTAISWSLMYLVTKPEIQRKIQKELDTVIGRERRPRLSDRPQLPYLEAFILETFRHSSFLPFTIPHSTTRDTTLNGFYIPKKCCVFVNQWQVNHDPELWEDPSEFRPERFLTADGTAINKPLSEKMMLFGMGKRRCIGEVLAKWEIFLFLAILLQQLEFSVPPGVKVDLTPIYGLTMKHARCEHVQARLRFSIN

[22] = Half life in orally dosed cynomolgus monkey; format: ADME, organism-based, Macaca fascicularis; conditions: in vivo, po
Rattus norvegicus [23] = assay: Analgesic activity in rat model of chronic joint pain assessed as reversal of pain by measuring weight bearing level at 1 mg/kg, po dosed twice daily for 5 days relative to untreated control; format: functional; conditions: 120 h
Thromboxane A2 receptor = molecular target: T3, Thromboxane A2 receptor (Homo sapiens, UniProt P21731); assay: Activity at TP receptor (unknown origin)
T3 sequence (P21731 whole entry): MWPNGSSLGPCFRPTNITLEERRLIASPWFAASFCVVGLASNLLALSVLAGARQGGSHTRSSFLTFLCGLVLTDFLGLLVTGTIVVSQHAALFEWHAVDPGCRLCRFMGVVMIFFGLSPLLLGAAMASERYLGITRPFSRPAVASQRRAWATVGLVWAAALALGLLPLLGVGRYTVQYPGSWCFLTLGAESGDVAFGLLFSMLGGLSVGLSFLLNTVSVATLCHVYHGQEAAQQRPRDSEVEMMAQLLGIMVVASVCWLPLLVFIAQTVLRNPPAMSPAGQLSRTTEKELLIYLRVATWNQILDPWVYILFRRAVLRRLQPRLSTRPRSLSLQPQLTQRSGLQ

Prostaglandin E2 receptor EP4 subtype, sequence (P35408 whole entry): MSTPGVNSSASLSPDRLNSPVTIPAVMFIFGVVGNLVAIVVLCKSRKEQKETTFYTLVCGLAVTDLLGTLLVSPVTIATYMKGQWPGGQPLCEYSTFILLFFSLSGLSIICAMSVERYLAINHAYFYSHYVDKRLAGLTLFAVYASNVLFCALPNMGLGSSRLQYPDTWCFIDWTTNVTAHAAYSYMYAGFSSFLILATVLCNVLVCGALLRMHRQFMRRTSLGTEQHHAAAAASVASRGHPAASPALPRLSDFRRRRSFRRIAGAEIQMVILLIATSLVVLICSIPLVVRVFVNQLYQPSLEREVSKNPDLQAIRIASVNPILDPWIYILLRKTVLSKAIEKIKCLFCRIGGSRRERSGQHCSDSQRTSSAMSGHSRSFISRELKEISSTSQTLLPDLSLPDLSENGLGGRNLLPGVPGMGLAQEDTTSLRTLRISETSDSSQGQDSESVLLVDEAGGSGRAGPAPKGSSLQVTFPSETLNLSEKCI
Cytochrome P450 2C9, sequence (P11712 whole entry): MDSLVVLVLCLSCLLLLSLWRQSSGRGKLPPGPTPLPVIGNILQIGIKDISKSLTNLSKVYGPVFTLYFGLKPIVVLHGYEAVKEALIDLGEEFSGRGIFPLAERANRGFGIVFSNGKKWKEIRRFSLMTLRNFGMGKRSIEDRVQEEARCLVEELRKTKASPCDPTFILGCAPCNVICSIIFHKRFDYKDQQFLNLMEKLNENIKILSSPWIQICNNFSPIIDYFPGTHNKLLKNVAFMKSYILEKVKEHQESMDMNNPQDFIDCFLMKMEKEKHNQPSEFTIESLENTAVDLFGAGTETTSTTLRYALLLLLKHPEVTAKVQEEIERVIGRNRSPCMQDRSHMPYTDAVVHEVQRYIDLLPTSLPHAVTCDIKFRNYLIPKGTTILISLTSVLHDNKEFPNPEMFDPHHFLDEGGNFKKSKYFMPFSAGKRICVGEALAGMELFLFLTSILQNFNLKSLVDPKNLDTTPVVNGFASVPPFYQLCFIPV
Cytochrome P450 3A4, sequence (P08684 whole entry): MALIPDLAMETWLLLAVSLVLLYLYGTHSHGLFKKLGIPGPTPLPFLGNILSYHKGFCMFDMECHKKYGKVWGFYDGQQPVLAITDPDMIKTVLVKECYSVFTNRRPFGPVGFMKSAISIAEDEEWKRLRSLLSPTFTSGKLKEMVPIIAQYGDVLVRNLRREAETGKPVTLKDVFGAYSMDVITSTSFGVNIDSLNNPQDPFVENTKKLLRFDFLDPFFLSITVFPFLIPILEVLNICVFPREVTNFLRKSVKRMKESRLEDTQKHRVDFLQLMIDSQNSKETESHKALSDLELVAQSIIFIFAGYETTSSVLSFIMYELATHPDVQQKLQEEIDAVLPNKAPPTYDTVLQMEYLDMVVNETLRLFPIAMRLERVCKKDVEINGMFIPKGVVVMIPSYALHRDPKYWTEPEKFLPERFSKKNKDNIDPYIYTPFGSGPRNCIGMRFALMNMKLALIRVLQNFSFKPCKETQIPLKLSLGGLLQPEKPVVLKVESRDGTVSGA
Prostaglandin F2-alpha receptor, sequence (P43088 whole entry): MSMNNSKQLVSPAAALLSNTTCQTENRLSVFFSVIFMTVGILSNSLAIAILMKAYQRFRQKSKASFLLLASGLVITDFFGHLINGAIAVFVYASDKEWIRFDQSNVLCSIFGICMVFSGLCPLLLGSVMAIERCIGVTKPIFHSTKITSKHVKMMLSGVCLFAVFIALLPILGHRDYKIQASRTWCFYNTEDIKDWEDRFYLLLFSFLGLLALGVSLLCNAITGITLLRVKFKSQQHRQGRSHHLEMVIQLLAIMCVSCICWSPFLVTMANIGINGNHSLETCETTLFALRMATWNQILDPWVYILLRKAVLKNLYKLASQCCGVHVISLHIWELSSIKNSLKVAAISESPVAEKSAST
Prostacyclin receptor (Homo sapiens), sequence (P43119 whole entry): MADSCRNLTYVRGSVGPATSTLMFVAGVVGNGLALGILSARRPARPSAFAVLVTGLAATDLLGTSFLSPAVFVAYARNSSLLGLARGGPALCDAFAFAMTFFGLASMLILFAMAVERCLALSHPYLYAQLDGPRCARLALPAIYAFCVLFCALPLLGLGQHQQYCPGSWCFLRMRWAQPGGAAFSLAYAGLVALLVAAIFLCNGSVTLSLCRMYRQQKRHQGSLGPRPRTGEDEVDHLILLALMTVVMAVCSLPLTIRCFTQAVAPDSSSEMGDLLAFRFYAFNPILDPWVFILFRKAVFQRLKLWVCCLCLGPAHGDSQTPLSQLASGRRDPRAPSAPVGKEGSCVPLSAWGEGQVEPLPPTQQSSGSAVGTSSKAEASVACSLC
Cytochrome P450 2D6, sequence (P10635 whole entry): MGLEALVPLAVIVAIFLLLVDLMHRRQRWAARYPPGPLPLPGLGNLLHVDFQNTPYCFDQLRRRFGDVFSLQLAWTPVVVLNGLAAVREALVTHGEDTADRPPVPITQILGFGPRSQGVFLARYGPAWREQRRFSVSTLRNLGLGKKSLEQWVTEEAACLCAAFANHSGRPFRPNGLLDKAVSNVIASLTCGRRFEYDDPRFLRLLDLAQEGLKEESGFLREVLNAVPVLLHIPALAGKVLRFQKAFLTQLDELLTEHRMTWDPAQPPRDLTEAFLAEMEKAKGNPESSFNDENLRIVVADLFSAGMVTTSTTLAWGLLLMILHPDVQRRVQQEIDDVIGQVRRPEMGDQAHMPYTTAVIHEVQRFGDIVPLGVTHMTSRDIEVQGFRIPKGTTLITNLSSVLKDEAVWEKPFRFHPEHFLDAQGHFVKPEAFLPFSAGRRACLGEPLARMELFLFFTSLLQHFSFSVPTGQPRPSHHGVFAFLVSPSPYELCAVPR

CCOc1c2c(c(OCC)c3ccccc13)C(=O)N(c1ccc(CC(=O)O)c(F)c1)C2
IC50 [1]: > 10 µM
Selectivity ratio (Homo sapiens [2]): > 100
clearance (Cynomolgus monkey): 4 mL/min/kg
INH (Cytochrome P450 2C9): > 100 µM
CLH [3]: < 1 mL/min/g
Selectivity ratio (Homo sapiens [4]): > 100
IC50 [5]: > 10 µM
ED50 (Rattus norvegicus [6]): 0.2 to 0.22 mg/kg
CLH [7]: < 1 mL/min/g
fraction unbound [8]: 0.001
Selectivity ratio (Homo sapiens [9]): > 100
Selectivity ratio (Homo sapiens [10]): > 100
EC50 [11]: 0.00631 µM
ED50 (Rattus norvegicus [12]): 0.23 mg/kg
inhibition in vivo at 3 mg/kg (Rattus norvegicus [13]): 100%
Ratio ED50 (Rattus norvegicus [14]): >10
INH (Cytochrome P450 3A4): > 100 µM
half-life [15]: 8 h
inhibition [16]: 31%
bioavailability [17]: 69%
Activity (Rattus norvegicus [18]): 80%
bioavailability [19]: 50%
Activity (Rattus norvegicus [20]): Tde
CL/F [21]: 1 mL/min/kg
INH (Cytochrome P450 2D6): > 100 µM
INH (Cytochrome P450 1A2): > 100 µM
half-life [22]: 5 to 10 h
inhibition in vivo at 1 mg/kg (Rattus norvegicus [23]): 100%
IC50 (Thromboxane A2 receptor): > 10 µM
